± gives the expanded uncertainty stated by the source.
Legend:
[1] = Crystal; DTA
[2] = xn = mol fraction of the nth substance listed; details: 298.2 K, 101 kPa, Liquid; for viscosity: Capillary tube (Ostwald / Ubbelohde) method; for mass density: Pycnometric method; for electrical conductivity: conductivity meter

Compound `C[N+](C)(C)CCO.[Cl-]` [choline chloride] has a Normal melting temperature [1] of 304.1 ± 0.5 °C.
Compound `Cc1ccccc1O` [2-methylphenol] + C[N+](C)(C)CCO.[Cl-] has a viscosity ([2]; x1 = 0.6667) of 207.41 ± 12 mPa·s, a viscosity ([2]; x1 = 0.75) of 77.65 ± 4 mPa·s and a viscosity ([2]; x1 = 0.7963) of 46.95 ± 2 mPa·s. It also gave a viscosity ([2]; x1 = 0.8333) of 34.9 ± 1.4 mPa·s, a viscosity ([2]; x1 = 0.8571) of 27.82 ± 1.1 mPa·s and a mass density ([2]; x1 = 0.6667) of 1077.6 ± 1.2 kg/m3. The mass density ([2]; x1 = 0.75) was 1070.7 ± 1.2 kg/m3, the mass density ([2]; x1 = 0.7963) was 1066.4 ± 1.2 kg/m3 and the mass density ([2]; x1 = 0.8333) was 1063.1 ± 1.2 kg/m3. The mass density ([2]; x1 = 0.8571) was 1060.6 ± 1.2 kg/m3, the electrical conductivity ([2]; x1 = 0.6667) was 0.083 ± 0.001 S/m and the electrical conductivity ([2]; x1 = 0.75) was 0.121 ± 0.002 S/m. It also gave an electrical conductivity ([2]; x1 = 0.7963) of 0.141 ± 0.002 S/m, an electrical conductivity ([2]; x1 = 0.8333) of 0.145 ± 0.002 S/m and an electrical conductivity ([2]; x1 = 0.8571) of 0.138 ± 0.002 S/m.

From the NIST ThermoML archive (doi:10.1021/je300997v)
